Test results taken from patent publication US20220220128A1, “HETEROCYCLIC COMPOUNDS AS KINASE INHIBITORS, COMPOSITIONS COMPRISING THE HETEROCYCLIC COMPOUND, AND METHODS OF USE THEREOF” (JS Innopharm (Shanghai) Ltd, priority 2019, published 2022).

What was measured:
human RET kinase = molecular target: T1, human RET kinase (Homo sapiens, UniProt P07949); assay: RET Kinase Assay (LanthaScreen TR-FRET enzymatic assay); assay type: biochemical; settings: 7 nM RET, 23 μM ATP
T1 construct: purchased Carna 08-159
How it was run: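 TR-FRET enzymatic read-out using 23 μM ATP, 3 μM FAM-P2 substrate and 7 nM human RET, after 15-min compound pretreatment at room temperature and a 1 h reaction at 28° C in HEPES pH 7.5 buffer. Percent of DMSO control fitted to nonlinear sigmoid curves for IC50.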

human KDR kinase = molecular target: T2, human KDR kinase (Homo sapiens, UniProt P35968); assay: KDR Kinase Assay (LanthaScreen TR-FRET enzymatic assay); assay type: biochemical; settings: 1.2 nM KDR, 92 μM ATP
T2 construct: purchased Carna 08-191
How it was run: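 TR-FRET enzymatic format: after 15-min room-temperature compound pretreatment, 1.2 nM human KDR phosphorylated 3 μM FAM-P22 with 92 μM ATP (HEPES pH 7.5, 28° C., one hour). Reactions were quenched with EDTA buffer. IC50 came from nonlinear sigmoid fits of percent-of-vehicle signal ratios.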

TT cells = assay: TT Cell Proliferation Assay (WST-8, 8 days); assay type: cell-based; settings: Homo sapiens, TT, 192 h, growth inhibition in TT cells, read-out: TT Cellular Activity
How it was run: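 IC50 was derived from absorbance at 450 nm after 5 h with WST-8, following 8 days' incubation at 37 °C. Final compound levels spanned 0.0005–5 μM in 0.5% DMSO. TT cells were seeded at 6,000 per well in 10% FBS RPMI-1640 and left to attach for 24 h beforehand.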

T1 sequence (P07949 29-1114): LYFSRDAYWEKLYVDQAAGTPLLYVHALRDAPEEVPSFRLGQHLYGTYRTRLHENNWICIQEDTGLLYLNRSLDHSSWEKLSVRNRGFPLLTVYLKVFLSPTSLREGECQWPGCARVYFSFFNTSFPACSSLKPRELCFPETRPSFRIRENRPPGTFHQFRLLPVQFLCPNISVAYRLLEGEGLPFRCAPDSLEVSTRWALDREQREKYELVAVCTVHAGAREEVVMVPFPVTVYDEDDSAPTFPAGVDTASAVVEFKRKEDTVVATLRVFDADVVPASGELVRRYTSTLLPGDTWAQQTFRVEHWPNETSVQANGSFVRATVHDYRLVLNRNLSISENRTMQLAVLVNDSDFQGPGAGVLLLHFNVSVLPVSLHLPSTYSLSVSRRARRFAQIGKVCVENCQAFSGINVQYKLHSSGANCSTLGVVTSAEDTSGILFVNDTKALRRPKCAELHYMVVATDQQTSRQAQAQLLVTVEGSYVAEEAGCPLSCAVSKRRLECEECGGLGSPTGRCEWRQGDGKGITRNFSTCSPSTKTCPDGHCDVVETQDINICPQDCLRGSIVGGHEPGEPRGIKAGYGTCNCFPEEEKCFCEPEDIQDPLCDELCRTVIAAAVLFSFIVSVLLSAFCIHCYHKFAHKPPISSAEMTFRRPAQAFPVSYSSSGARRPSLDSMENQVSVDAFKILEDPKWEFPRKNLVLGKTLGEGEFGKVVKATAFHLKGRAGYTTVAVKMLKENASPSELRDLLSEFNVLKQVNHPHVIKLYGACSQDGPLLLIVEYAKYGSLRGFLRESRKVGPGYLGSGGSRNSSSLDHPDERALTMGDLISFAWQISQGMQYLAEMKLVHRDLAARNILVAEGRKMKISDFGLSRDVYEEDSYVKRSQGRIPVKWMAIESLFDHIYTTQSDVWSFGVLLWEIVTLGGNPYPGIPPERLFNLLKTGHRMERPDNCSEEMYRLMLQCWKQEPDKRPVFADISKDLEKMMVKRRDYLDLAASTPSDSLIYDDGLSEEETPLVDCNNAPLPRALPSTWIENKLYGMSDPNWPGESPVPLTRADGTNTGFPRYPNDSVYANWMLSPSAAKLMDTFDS
T2 sequence (P35968 20-1356): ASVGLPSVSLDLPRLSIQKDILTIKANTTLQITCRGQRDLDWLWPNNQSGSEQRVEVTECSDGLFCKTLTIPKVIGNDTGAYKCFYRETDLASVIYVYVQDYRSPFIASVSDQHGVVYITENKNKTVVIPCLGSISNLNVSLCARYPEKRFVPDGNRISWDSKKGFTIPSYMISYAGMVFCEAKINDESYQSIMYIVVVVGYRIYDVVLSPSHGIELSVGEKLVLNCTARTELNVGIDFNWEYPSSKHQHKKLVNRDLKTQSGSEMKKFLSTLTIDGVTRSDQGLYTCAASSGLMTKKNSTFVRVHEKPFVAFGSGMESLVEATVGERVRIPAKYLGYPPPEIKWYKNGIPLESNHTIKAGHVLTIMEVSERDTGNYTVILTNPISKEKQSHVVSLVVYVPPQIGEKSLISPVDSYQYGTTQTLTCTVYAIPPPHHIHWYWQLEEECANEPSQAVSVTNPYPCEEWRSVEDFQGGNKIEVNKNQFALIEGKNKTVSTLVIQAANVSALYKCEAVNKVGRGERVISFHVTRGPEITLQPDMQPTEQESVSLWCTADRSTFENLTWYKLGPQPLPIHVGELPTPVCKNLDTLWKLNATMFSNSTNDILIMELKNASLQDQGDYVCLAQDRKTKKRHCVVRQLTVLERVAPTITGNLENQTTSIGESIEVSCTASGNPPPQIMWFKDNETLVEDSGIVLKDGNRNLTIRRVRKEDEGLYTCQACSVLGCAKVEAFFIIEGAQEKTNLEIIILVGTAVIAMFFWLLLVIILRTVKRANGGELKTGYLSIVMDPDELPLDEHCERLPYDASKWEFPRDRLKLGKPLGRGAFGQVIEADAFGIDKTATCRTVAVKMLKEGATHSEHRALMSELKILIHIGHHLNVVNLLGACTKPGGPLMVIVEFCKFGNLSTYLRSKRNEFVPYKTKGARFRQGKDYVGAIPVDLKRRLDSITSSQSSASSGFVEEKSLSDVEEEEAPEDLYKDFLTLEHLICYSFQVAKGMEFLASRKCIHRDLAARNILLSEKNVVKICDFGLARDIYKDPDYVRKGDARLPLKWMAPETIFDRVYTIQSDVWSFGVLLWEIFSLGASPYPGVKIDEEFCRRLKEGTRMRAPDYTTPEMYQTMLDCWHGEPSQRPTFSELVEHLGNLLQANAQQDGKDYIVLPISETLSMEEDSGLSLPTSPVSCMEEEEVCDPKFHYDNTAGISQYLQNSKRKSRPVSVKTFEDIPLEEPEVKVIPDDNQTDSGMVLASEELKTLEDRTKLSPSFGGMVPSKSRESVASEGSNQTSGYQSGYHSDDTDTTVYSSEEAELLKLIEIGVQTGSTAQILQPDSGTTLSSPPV

| SMILES | IC50 (human RET kinase) [µM] | IC50 (human KDR kinase) [µM] | IC50 (TT cells) [µM] |
| --- | --- | --- | --- |
| CCOc1cc(-c2ccc(N3C[C@@H]4C[C@@](C)(NC(=O)c5nc(C)ccc5Cl)C[C@@H]4C3)nc2)c2c(C#N)cnn2c1 [Example 67, 3-chloro-N-((3aR,5s,6aS)-2-(5-(3-cyano-6-ethoxypyrazolo[1,5-a]pyridin-4-yl)pyridin-2-yl)-5-methyloctahydrocyclopenta[c]pyrrol-5-yl)-6-methylpicolinaniide] | ≤ 0.01 | > 0.1 | 0.05 to 0.1 |
| COc1ccc(CN(C)[C@H]2[C@@H]3CN(c4ccc(-c5cc(-c6cnn(C)c6)cn6ncc(C#N)c56)cn4)C[C@@H]32)cn1 [Example 34, 4-(6-((1R,5S,6s)-6-(((6-methoxypyridin-3-yl)methyl)(methyl)amino)-3-azabicyclo[3.1.0]hexan-3-yl)pyridin-3-yl)-6-(1-methyl-1H-pyrazol-4-yl)pyrazolo[1,5-a]pyridine-3-carbonitrile] | ≤ 0.01 | 0.01 to 0.05 | 0.01 to 0.05 |
| Cn1ccc(-c2cc(-c3ccc(N4C[C@@H]5CN(S(=O)(=O)c6c(F)cccc6Cl)C[C@@H]5C4)nc3)c3c(C#N)cnn3c2)n1 [Example 179, 4-(6-((3aR,6aS)-5-((2-chloro-6-fluorophenyl)sulfonyl)hexahydropyrrolo[3,4-c]pyrrol-2(1H)-yl)pyridin-3-yl)-6-(1-methyl-1H-pyrazol-3-yl)pyrazolo[1,5-a]pyridine-3-carbonitrile] | 0.01 to 0.05 | 0.01 to 0.05 | ≤ 0.01 |
| Cn1cc(-c2cc(-c3ccc(N4C[C@@H]5[C@H](C4)[C@H]5NC(=O)c4cc(F)ccc4Cl)nc3)c3c(C#N)cnn3c2)cn1 [Example 28, 2-chloro-N-((1R,5S,6s)-3-(5-(3-cyano-6-(1-methyl-1H-pyrazol-4-yl)pyrazolo[1,5-a]pyridin-4-yl)pyridin-2-yl)-3-azabicyclo[3.1.0]hexan-6-yl)-5-fluorobenzamide] | ≤ 0.01 | ≤ 0.01 | 0.01 to 0.05 |
| Cn1cc(-c2cc(-c3ccc(N4C[C@H]5CN(C(=O)C(O)c6ccccc6)C[C@H]5C4)nc3)c3c(C#N)cnn3c2)cn1 (stereo partly drawn) [Example 3, 4-(6-((3aR,6aS)-5-(2-hydroxy-2-phenylacetyl)hexahydropyrrolo[3,4-c]pyrrol-2(1H)-yl)pyridin-3-yl)-6-(1-methyl-1H-pyrazol-4-yl)pyrazolo[1,5-a]pyridine-3-carbonitrile] | ≤ 0.01 | 0.01 to 0.05 | 0.01 to 0.05 |
| Cc1ccc(Cl)c(C(=O)N[C@H]2[C@@H]3CN(c4ccc(-c5cc(-c6cnn(C)c6)cn6ncc(C#N)c56)cn4)C[C@@H]32)n1 [Example 27, 3-chloro-N-((1R,5S,6s)-3-(5-(3-cyano-6-(1-methyl-1H-pyrazol-4-yl)pyrazolo[1,5-a]pyridin-4-yl)pyridin-2-yl)-3-azabicyclo[3.1.0]hexan-6-yl)-6-methylpicolinamide] | ≤ 0.01 | 0.01 to 0.05 | 0.01 to 0.05 |
| COc1cc(-c2ccc(N3C[C@@H]4[C@H](C3)[C@H]4NC(=O)c3ncccc3Cl)nc2)c2c(C#N)cnn2c1 [Example 39, 3-chloro-N-((1R,5S,6s)-3-(5-(3-cyano-6-methoxypyrazolo[1,5-a]pyridin-4-yl)pyridin-2-yl)-3-azabicyclo[3.1.0]hexan-6-yl)picolinamide] | 0.05 to 0.1 | > 0.1 | > 0.1 |
| Cn1cc(-c2cc(-c3ccc(N4C[C@@H]5[C@@H](CNS(=O)(=O)c6c(F)cccc6Cl)[C@@H]5C4)nc3)c3c(C#N)cnn3c2)cn1 [Example 74, 2-chloro-N-(((1R,5S,6r)-3-(5-(3-cyano-6-(1-methyl-H-pyrazol-4-yl)pyrazolo[1,5-a]pyridin-4-yl)pyridin-2-yl)-3-azabicyclo[3.1.0]hexan-6-yl)methyl)-6-fluorobenzenesulfonamide] | ≤ 0.01 | 0.01 to 0.05 | 0.01 to 0.05 |
| CC(C)[C@@H](O)C(=O)N[C@H]1[C@@H]2CN(c3ccc(-c4cc(-c5cnn(C)c5)cn5ncc(C#N)c45)cn3)C[C@@H]21 [Example 19, (R)-N-((1R,5S,6s)-3-(5-(3-cyano-6-(1-methyl-1H-pyrazol-4-yl)pyrazolo[1,5-a]pyridin-4-yl)pyridin-2-yl)-3-azabicyclo[3.1.0]hexan-6-yl)-2-hydroxy-3-methylbutanamide] | ≤ 0.01 | 0.01 to 0.05 | 0.01 to 0.05 |
| CC(C)(O)COc1cc(-c2ccc(N3C[C@@H]4C[C@@](C)(NC(=O)c5ncccc5F)C[C@@H]4C3)nc2)c2c(C#N)cnn2c1 [Example 128, N-((3aR,5s,6aS)-2-(5-(3-cyano-6-(2-hydroxy-2-methylpropoxy)pyrazolo[1,5-a]pyridin-4-yl)pyridin-2-yl)-5-methyloctahydrocyclopenta[c]pyrrol-5-yl)-3-fluoropicolinamide] | ≤ 0.01 | 0.01 to 0.05 | 0.01 to 0.05 |
| Cn1cc(-c2cc(-c3ccc(N4C[C@@H]5[C@H](CNC(=O)OC(C)(C)C)[C@@H]5C4)nc3)c3c(C#N)cnn3c2)cn1 [Example 72, tert-butyl (((1R,5S,6r)-3-(5-(3-cyano-6-(1-methyl-1H-pyrazol-4-yl)pyrazolo[1,5-a]pyridin-4-yl)pyridin-2-yl)-3-azabicyclo[3.1.0]hexan-6-yl)methyl)carbamate] | ≤ 0.01 | ≤ 0.01 | ≤ 0.01 |
| CCOc1cc(-c2cnc(N3C[C@@H]4C[C@@](C)(NC(=O)c5ncccc5Cl)C[C@@H]4C3)cn2)c2c(C#N)cnn2c1 [Example 60, 3-chloro-N-((3aR,5s,6aS)-2-(5-(3-cyano-6-ethoxypyrazolo[1,5-a]pyridin-4-yl)pyrazin-2-yl)-5-methyloctahydrocyclopenta[c]pyrrol-5-yl)picolinamide] | ≤ 0.01 | > 0.1 | 0.01 to 0.05 |
| CCOc1cc(-c2cnc(N3C[C@H]4C[C@H](NC(=O)c5ncccc5Cl)C[C@H]4C3)cn2)c2c(C#N)cnn2c1 [Example 50, 3-chloro-N-((3aR,5s,6aS)-2-(5-(3-cyano-6-ethoxypyrazolo[1,5-a]pyridin-4-yl)pyrazin-2-yl)octahydrocyclopenta[c]pyrrol-5-yl)picolinamide] | ≤ 0.01 | > 0.1 | 0.01 to 0.05 |
| Cn1ccc(-c2cc(-c3ccc(N4C[C@@H]5[C@H](C4)[C@H]5NC(=O)c4ncccc4Cl)nc3)c3c(C#N)cnn3c2)n1 [Example 29, 3-chloro-N-((1R,5S,6s)-3-(5-(3-cyano-6-(1-methyl-1H-pyrazol-3-yl)pyrazolo[1,5-a]pyridin-4-yl)pyridin-2-yl)-3-azabicyclo[3.1.0]hexan-6-yl)picolinamide] | ≤ 0.01 | 0.01 to 0.05 | 0.05 to 0.1 |
| Cn1cc(-c2cc(-c3cnc(N4C[C@@H]5C[C@@](C)(NC(=O)c6c(F)cccc6Cl)C[C@@H]5C4)cn3)c3c(C#N)cnn3c2)cn1 [Example 141, 2-chloro-N-((3aR,5s,6aS)-2-(5-(3-cyano-6-(1-methyl-1H-pyrazol-4-yl)pyrazolo[1,5-a]pyridin-4-yl)pyrazin-2-yl)-5-methyloctahydrocyclopenta[c]pyrrol-5-yl)-6-fluorobenzamide] | ≤ 0.01 | ≤ 0.01 | ≤ 0.01 |
| COc1ccc(C(=O)N2C[C@@H]3CN(c4ccc(-c5cc(-c6cnn(C)c6)cn6ncc(C#N)c56)cn4)C[C@@H]3C2)cn1 [Example 1, 4-(6-((3aR,6aS)-5-(6-methoxynicotinoyl)hexahydropyrrolo[3,4-c]pyrrol-2(1H)-yl)pyridin-3-yl)-6-(1-methyl-1H-pyrazol-4-yl)pyrazolo[1,5-a]pyridine-3-carbonitrile] | ≤ 0.01 | 0.01 to 0.05 | 0.01 to 0.05 |
| CC(C)(O)COc1cc(-c2ccc(N3C[C@@H]4[C@H](C3)[C@H]4NS(=O)(=O)c3c(F)cccc3Cl)nc2)c2c(C#N)cnn2c1 [Example 47, 2-chloro-N-((1R,5S,6s)-3-(5-(3-cyano-6-(2-hydroxy-2-methylpropoxy)pyrazolo[1,5-a]pyridin-4-yl)pyridin-2-yl)-3-azabicyclo[3.1.0]hexan-6-yl)-6-fluorobenzene-sulfonamide] | ≤ 0.01 | 0.01 to 0.05 | 0.01 to 0.05 |
| CCOc1cc(-c2cnc(N3C[C@@H]4[C@H](C3)[C@@H]4NC(=O)c3ncccc3Cl)cn2)c2c(C#N)cnn2c1 [Example 41, 3-chloro-N-((1R,5S,6r)-3-(5-(3-cyano-6-ethoxypyrazolo[1,5-a]pyridin-4-yl)pyrazin-2-yl)-3-azabicyclo[3.1.0]hexan-6-yl)picolinamide] | > 0.1 | > 0.1 | > 0.1 |
| COc1ccc(NC(=O)N[C@H]2[C@@H]3CN(c4ccc(-c5cc(OCC(C)(C)O)cn6ncc(C#N)c56)cn4)C[C@@H]32)cn1 [Example 183, 1-((1R,5S,6s)-3-(5-(3-cyano-6-(2-hydroxy-2-methylpropoxy)pyrazolo[1,5-a]pyridin-4-yl)pyridin-2-yl)-3-azabicyclo[3.1.0]hexan-6-yl)-3-(6-methoxypyridin-3-yl)urea] | 0.01 to 0.05 | > 0.1 | > 0.1 |
| Cn1ccc(-c2cc(-c3ccc(N4C[C@@H]5C[C@@](C)(NS(=O)(=O)c6c(F)cccc6Cl)C[C@@H]5C4)nc3)c3c(C#N)cnn3c2)n1 [Example 178, 2-chloro-N-((3aR,5s,6aS)-2-(5-(3-cyano-6-(1-methyl-1H-pyrazol-3-yl)pyrazolo[1,5-a]pyridin-4-yl)pyridin-2-yl)-5-methyloctahydrocyclopenta[c]pyrrol-5-yl)-6-fluorobenzenesulfonamide] | ≤ 0.01 | 0.01 to 0.05 | ≤ 0.01 |
